The values below come from ChEMBL document CHEMBL1201862, “PubChem BioAssay data set” (2004).

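Method: 48-hour compound exposure of cells in 96-well plates, five concentrations, linear interpolation of endpoints. GI50 is the concentration that inhibits growth by half.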 Active and inactive are the calls of the source. Cut-off read from the data, not from the text of the source: active = GI50 up to about 1.1 µM and inactive = higher. Peptide text beside a SMILES is read from it.

Assay in all cases: inhibition of tumour cell growth, NCI panel, 48 h
In experiment [1] the test system is A549.
The test system of experiment [2] is COLO 205.
The subject of experiment [3] is DU-145.
For experiment [4], the system named is EKVX.
Experiment [5] concerns HCT-116.
Experiment [6] has as its system HOP-62.
Experiment [7] relates to HOP-92.
In experiment [8] the test system is HT-29.
For experiment [9], the system named is KM12.
Experiment [10] has as its system MCF7.
Experiment [11] has as its system MOLT-4.
Experiment [12] concerns RPMI-8226.
For experiment [13], the system named is SF-295.
Experiment [14] concerns SF-539.
In experiment [15] the test system is SK-MEL-28.
For experiment [16], the system named is SNB-75.
The test system of experiment [17] is TK-10.
Experiment [18] concerns UACC-257.
Experiment [19] has as its system UACC-62.
Experiment [20] concerns UO-31.

`O=P1(NCCCl)OCCC(OO)N1CCCl` (stereo not given): the GI50 was > 71.9 µM (inactive) in experiment [1]; 33.1 µM (inactive) in experiment [2]; 54 µM (inactive) in [3]; > 100 µM (inactive) in experiment [4]; 15.8 µM (inactive) in [5]; 52.4 µM (inactive) in [6]. Besides, the GI50 was 16.8 µM (inactive) in experiment [7]; 36.6 µM (inactive) in [8]; > 100 µM (inactive) in experiment [9]; 24.9 µM (inactive) in experiment [10]; > 36.9 µM (inactive) in experiment [11]; 7.03 µM (inactive) in experiment [12]. In addition, the GI50 in experiment [13] was 1.72 µM (inactive); in experiment [14], 16.9 µM (inactive); in [15], 18.9 µM (inactive); in experiment [16] it was 32.7 µM (inactive); in [17], 20 µM (inactive); in [18], 32.1 µM (inactive). Further, the GI50 is 21.1 µM (inactive) in [19] and > 64.3 µM (inactive) in experiment [20].

As to `O=C1/C(=C/c2ccc(Cl)cc2)CCC1CN1CCOCC1` (stereo not given), the GI50 in experiment [1] was 27.4 µM (inactive); in experiment [2], 7.8 µM (inactive); in [3] it was 11.5 µM (inactive); in [4], 12.2 µM (inactive); in experiment [5], 4.2 µM (inactive); in experiment [6] it was 16.1 µM (inactive). For the same molecule, the GI50 was 3.96 µM (inactive) in experiment [7]; 7.03 µM (inactive) in experiment [8]; 3.33 µM (inactive) in [9]; 3.77 µM (inactive) in experiment [10]; 1.12 µM (inactive) in experiment [11]; 0.818 µM (active) in [12]. Also, the GI50 in experiment [13] is 17.5 µM (inactive); in experiment [14], 10.6 µM (inactive); in experiment [15], 8 µM (inactive); in experiment [16], 20.5 µM (inactive); in experiment [17] it was 7.36 µM (inactive); in experiment [18], 8.73 µM (inactive). Further, the GI50 in experiment [19] is 5.51 µM (inactive); in experiment [20] it was 9.08 µM (inactive).

Turning to `COc1ccc(/C(CCl)=C(\Nc2ccccc2)c2ccc(OC)c(OC)c2)cc1OC`, the GI50 in experiment [1] is 85.7 µM (inactive); in [2] it was > 100 µM (inactive); in experiment [3] it was > 100 µM (inactive); in experiment [4] it was > 100 µM (inactive); in experiment [5] it was 27.6 µM (inactive); in experiment [6], > 100 µM (inactive). In addition, the GI50 in experiment [7] is 55.1 µM (inactive); in experiment [8], > 100 µM (inactive); in experiment [9], > 100 µM (inactive); in experiment [10], > 100 µM (inactive); in [11] it was 28.6 µM (inactive); in experiment [12], 68.2 µM (inactive). Moreover, the GI50 was 78 µM (inactive) in [13]; > 100 µM (inactive) in experiment [14]; > 100 µM (inactive) in experiment [15]; > 100 µM (inactive) in experiment [16]; > 100 µM (inactive) in experiment [17]; > 100 µM (inactive) in [18]. Moreover, the values for the GI50 in experiment [19] and in [20] were > 100 µM (inactive) and 46.5 µM (inactive), respectively.

`C=C1C(=O)OC2CC(C)C(C(CC(C)=O)OC(C)=O)=CCC12` (stereo not given): the GI50 in experiment [1] is 28.2 µM (inactive); in [2] it was 6.82 µM (inactive); in experiment [3] it was 16.5 µM (inactive); in [4], 11.8 µM (inactive); in experiment [5], 1.79 µM (inactive); in [6] it was 21 µM (inactive). Moreover, the GI50 is 6.87 µM (inactive) in [7]; 8.41 µM (inactive) in [8]; 18.6 µM (inactive) in experiment [9]; 4.74 µM (inactive) in [10]; 4.07 µM (inactive) in [11]; 3.87 µM (inactive) in experiment [12]. Moreover, the GI50 in [13] was 23.8 µM (inactive); in experiment [14], 15.3 µM (inactive); in [15] it was 8.24 µM (inactive); in [16], 23.1 µM (inactive); in experiment [17], 17.3 µM (inactive); in experiment [18], 16.5 µM (inactive). Besides, the values for the GI50 in experiment [19] and in experiment [20] were 11.7 µM (inactive) and 16.2 µM (inactive), respectively.

As to `CC(C)=CCC/C(=C/CC/C(=C\CCc1ccoc1)C(=O)O)C(=O)O`, the GI50 in [1], in [2], in [3], in experiment [4], in experiment [5] and in experiment [6] was > 100 µM (inactive) each time. The GI50 in experiment [7], in [8], in [9], in experiment [10], in experiment [11] and in experiment [12] was > 100 µM (inactive) throughout. The GI50 in experiment [13], in experiment [14], in [15], in experiment [16], in experiment [17] and in experiment [18] was > 100 µM (inactive) in each case. Moreover, the GI50 in [19] and in experiment [20] was > 100 µM (inactive) in each case.

`CCOC(=O)c1nc2ccccc2nc1NCc1cc(OC)c(OC)c(OC)c1`: the GI50 in experiment [1] was 37.8 µM (inactive); in experiment [2], 38.2 µM (inactive); in experiment [3] it was > 100 µM (inactive); in experiment [4], 51.1 µM (inactive); in experiment [5], 36.1 µM (inactive); in experiment [6] it was 55.1 µM (inactive). In addition, the GI50 in [7] is 34.3 µM (inactive); in [8], 40.5 µM (inactive); in experiment [9] it was 34.4 µM (inactive); in experiment [10], 35.6 µM (inactive); in experiment [11] it was 27.2 µM (inactive); in [12] it was 25.2 µM (inactive). Besides, the GI50 was 54.1 µM (inactive) in experiment [13]; > 100 µM (inactive) in [14]; 58.3 µM (inactive) in experiment [15]; 89.5 µM (inactive) in experiment [16]; > 100 µM (inactive) in experiment [17]; 75 µM (inactive) in experiment [18]. The GI50 in experiment [19] is 36.8 µM (inactive); in [20], 24.6 µM (inactive).

For the molecule `COC(=O)[C@@H]1C[C@@]23CCCN4CC[C@@]5(c6cccc(OC)c6N(C=O)[C@]15CC2)[C@@H]43`, the GI50 in experiment [1], in [2], in experiment [3], in experiment [4], in experiment [5] and in experiment [6] was > 100 µM (inactive) each time. The GI50 in experiment [7], in experiment [8], in experiment [9], in [10], in experiment [11] and in experiment [12] was > 100 µM (inactive) each time. Further, the GI50 in experiment [13] is > 100 µM (inactive); in experiment [14], > 100 µM (inactive); in experiment [15], > 100 µM (inactive); in [16], 78.7 µM (inactive); in experiment [17], > 100 µM (inactive); in experiment [18], > 100 µM (inactive). For the same molecule, the GI50 in [19] and in [20] was > 100 µM (inactive) each time.

On to `Cc1ccc([S@+]([O-])c2occc2C=O)cc1`, for which the GI50 in experiment [1] was 19.6 µM (inactive); in [2] it was 14.9 µM (inactive); in experiment [3] it was 19 µM (inactive); in experiment [4], 19.8 µM (inactive); in [5], 3.03 µM (inactive); in experiment [6], 17.5 µM (inactive). Besides, the GI50 was 3.27 µM (inactive) in experiment [7]; 7.38 µM (inactive) in experiment [8]; 17.2 µM (inactive) in experiment [9]; 3.48 µM (inactive) in experiment [10]; 1.79 µM (inactive) in experiment [11]; 1.91 µM (inactive) in experiment [12]. Further, the GI50 is 17.7 µM (inactive) in experiment [13]; 11.4 µM (inactive) in experiment [14]; 3.82 µM (inactive) in experiment [15]; 12.1 µM (inactive) in experiment [16]; 14.3 µM (inactive) in experiment [17]; 12.4 µM (inactive) in experiment [18]. The GI50 in experiment [19] is 15.5 µM (inactive); in [20], 11.1 µM (inactive).

On to `CCC(C)C(NC(=O)C(NC(=O)C(CC(N)=O)NC(=O)CN)C(C)O)C(=O)NC(C(=O)NC(C)C(=O)NC(C(=O)NC(CCC(=O)O)C(=O)NC(CC(C)C)C(=O)NC(CC(=O)O)C(=O)NC(C(=O)NC(Cc1ccc(O)cc1)C(=O)N1CCCC1C(=O)O)C(C)O)C(C)C)C(C)C` (stereo not given) (H-GNTIVAVELDTYP-OH; configuration not given here), for which the GI50 in experiment [1], in [2], in [3], in experiment [4], in experiment [5] and in experiment [6] was > 50 µM (inactive) in each case. In addition, the GI50 in [7], in [8], in experiment [9], in experiment [10], in [11] and in experiment [12] was > 50 µM (inactive) throughout. The GI50 in experiment [13], in experiment [14], in experiment [15], in experiment [16], in experiment [17] and in experiment [18] was > 50 µM (inactive) throughout. Besides, the GI50 in experiment [19] and in [20] was > 50 µM (inactive) each time.

`OCCN(CCO)CCn1cnc2c(NCc3ccccc3)ncnc21`: the GI50 in [1], in [2], in [3], in experiment [4], in experiment [5] and in [6] was > 100 µM (inactive) in each case. Besides, the GI50 in [7], in [8], in experiment [9], in experiment [10], in [11] and in experiment [12] was > 100 µM (inactive) each time. Moreover, the GI50 in experiment [13], in experiment [14], in [15], in [16], in experiment [17] and in experiment [18] was > 100 µM (inactive) in each case. For the same molecule, the GI50 in experiment [19] and in experiment [20] was > 100 µM (inactive) each time.
